Measurements from patent publication US9302985B2, “Benzyl sulfonamide derivatives as RORc modulators” (Genentech, Inc., priority 2012, dated 2016).

Target: RORc ligand binding domain (Homo sapiens (Human), UniProt P51449)
Experiment: In vitro RORc Ligand Binding Assay
Details: displacement of 6 nM 25-[3H]hydroxycholesterol; 0.6 ug/mL RORc receptor; 3 h at 25° C.
Experimental: In vitro RORc Ligand Binding Assay
This assay was used to determine a compound's potency in inhibiting activity of RORc by determining, Kiapp, IC50, or percent inhibition values.
On day of the assay, 100 uL of 0.05% CHAPS (in deionized H2O) was added to all wells of the GFB Unifilter plate and allowed soak for 1 h. A wash buffer of 50 mM HEPES (pH 7.4), 150 mM NaCl, and 5 mM MgCl2 was prepared to wash the filter plate. To prepare an assay buffer, BSA was added to the wash buffer to reach 0.01% and DTT was added to reach 1 mM.
The 20× compound stocks were diluted in DMSO with Assay Buffer 4-fold to reach 5× the final test concentration in 25% DMSO (10 uL compound+30 uL Assay Buffer). Solutions were mixed by aspiration several times with a pipette set on 50 uL volume. For the assay, 10 uL of 5× compound stock solutions in 25% DMSO were added to the assay plate in duplicate.
For 25-hydroxycholesterol in 25% DMSO/75% Assay Buffer; 10 uL per well was used for NSB samples. Wells for Total Binding and No Receptor sample determination contained 10 uL of 25% DMSO/75% Assay Buffer per well.
Add 20 uL to all wells to reach 6 nM final concentration in the assay.
Stock receptor solution was diluted in assay buffer to obtain 1.5 ug/mL in Assay Buffer. 20 uL was added to all wells. For No Receptor samples, 20 uL Assay Buffer was substituted for receptor solution.
Assay plates were 96-well polypropylene V-bottom plates. 10 uL of 5× compound in 25% DMSO/75% Assay Buffer was added to Test wells. 10 uL of 25% DMSO/75% Assay Buffer was added to Total Binding or No Receptor wells. 10 uL of 5 uM 25-hydroxycholesterol in 25% DMSO/75% Assay Buffer was added to NSB wells. […] 20 uL of 1.5 ug/mL RORc receptor was added to wells (or 40 uL Assay Buffer to No R wells). Following addition to the wells, the plates were incubated 3 h at 25° C.
Using a Packard Filtermate Harvester, the filter plate were washed 4 times following transfer of the incubated samples. Plates were dry-filtered completely (2 h at 50° C. or overnight at room temperature). 50 uL Microscint 0 was added to all wells and read on Topcount protocol Inverted.
Final concentrations were as follows: 50 mM HEPES buffer (pH 7.4); 150 mM NaCl; 1 mM DTT; 5 mM MgCl2; 0.01% BSA; 5% DMSO; 0.6 ug/mL RORc receptor; 6 nM 25-[^3H]hydroxycholesterol. For NSB wells, 1 uM 25-hydroxycholesterol was also present.

Sequence of RORc ligand binding domain (P51449 269-508, species assumed): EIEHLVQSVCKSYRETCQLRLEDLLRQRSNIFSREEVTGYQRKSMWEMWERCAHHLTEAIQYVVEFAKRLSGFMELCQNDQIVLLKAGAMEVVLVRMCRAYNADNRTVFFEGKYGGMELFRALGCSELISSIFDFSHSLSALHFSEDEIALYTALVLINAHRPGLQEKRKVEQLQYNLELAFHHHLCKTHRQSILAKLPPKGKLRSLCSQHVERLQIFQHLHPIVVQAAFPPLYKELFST

Which IC50 does the source give for CC(C)CN(c1cccc(Cl)c1)S(=O)(=O)c1ccc(Oc2ccc(S(C)(=O)=O)cc2)cc1 [Compound 5, N-(3-Chloro-phenyl)-N-isobutyl-4-(4-mehanesulfonyl-phenoxy)-benzenesulfonamide] here?
The IC50 was 138 nM.

Which IC50 does the source give for CC(C)CN(Cc1ccccc1)S(=O)(=O)c1ccc(-c2ccc(C(N)=O)cc2)cc1 [Compound 7, 4′-(Benzyl-isobutyl-sulfamoyl)-biphenyl-4-carboxylic acid amide] here?
Its IC50 is 124 nM.

For CC(C)CN(c1cccc(Cl)c1)S(=O)(=O)c1ccc(-c2ccc(S(N)(=O)=O)cc2)cc1 [Compound 14, Biphenyl-4,4′-disulfonic acid 4′-amide 4-[(3-chloro-phenyl)-isobutyl-amide]], which IC50 is on record?
Its IC50 is 103 nM.

For CC(C)CN(c1cccc(Cl)c1)S(=O)(=O)c1ccc(-c2ccc(C(N)=O)cc2)cc1 [Compound 15, 4′-[(3-Chloro-phenyl)-isobutyl-sulfamoyl]-biphenyl-4-carboxylic acid amide], which IC50 is on record?
Its IC50 is 38 nM.

Which IC50 does the source give for CC(C)CN(c1ccccc1Cl)S(=O)(=O)c1ccc(-c2ccc(C(N)=O)cc2)cc1 [Compound 16, 4′-[(2-Chloro-phenyl)-isobutyl-sulfamoyl]-biphenyl-4-carboxylic acid amide] here?
Its IC50 is 39 nM.
